Reference: patent US12594276B2, “Inhibitors of human immunodeficiency virus replication” (ViiV Healthcare UK (No.5) Limited, priority 2024, dated 2026)

Columns and labels:
[1] = system: recombinant NL4-3 virus (nef section replaced with Renilla luciferase gene) in MT-2 cells; test: HIV cell culture assay (antiviral activity, luciferase readout); assay type: cell-based; settings: Renilla, NL43, MT-2 cells infected for 4-5 days with recombinant NL4-3 Renilla luciferase virus
How it was run: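 The reporter virus was produced by transfecting 293T cells with the NL4-3 nef/Renilla luciferase proviral clone. MT-2 cells were infected for 4–5 days with serial compound dilutions present. Luciferase was read with a live-cell substrate, and EC50 came from the exponential median-effect equation.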

[2] = Compound cytotoxicity, XTT-based colorimetric assay; assay type: cell-based; settings: human; uninfected MT2 cells, day 4, XTT; read-out: CC50
How it was run: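 Cells seeded as for the antiviral assay but left uninfected (MT2). Compound exposure continued to day 4. XTT reagent added and colour read. CC50 calculated.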

Compound | EC50 [1] | CC50 at 4 days [2]
Cc1cc(C2CCC(F)(F)CC2)nc2nc([C@H](Cc3cc(F)cc(F)c3)NC(=O)Cn3nc(C(F)F)c4c3C(F)(F)[C@@H]3C[C@H]43)n(-c3ccc(Cl)c4c(NS(C)(=O)=O)nn(CCN5CC(F)(F)C(F)(F)C5)c34)c(=O)c12 (atropisomer, axis not shown; (P)) [Example 247, N-[(1S)-1-[(3P)-3-{4-chloro-3-methanesulfonamido-1-[2-(3,3,4,4-tetrafluoropyrrolidin-1-yl)ethyl]-1H-indazol-7-yl}-7-(4,4-difluorocyclohexyl)-5-methyl-4-oxo-3H,4H-pyrido[2,3-d]pyrimidin-2-yl]-2-(3,5-difluorophenyl)ethyl]-2-[(2S,4R)-9-(difluoromethyl)-5,5-difluoro-7,8-diazatricyclo[4.3.0.0^2,^4]nona-1(6),8-dien-7-yl]acetamide] | 0.047 nM | > 50 nM
Cc1cc(C2(C)CCC(F)(F)CC2)nc2nc([C@H](Cc3cc(F)cc(F)c3)NC(=O)Cn3nc(C4CC4)c4c3C[C@@H]3C[C@H]43)n(-c3ccc(Cl)c4c(NS(C)(=O)=O)nn(CCN5C[C@@H](C)O[C@@H](C)C5)c34)c(=O)c12 (atropisomer, axis not shown; (P)) [Example 508, N-[(1S)-1-[(3P)-3-(4-chloro-1-{2-[(2R,6S)-2,6-dimethylmorpholin-4-yl]ethyl}-3-methanesulfonamido-1H-indazol-7-yl)-7-(4,4-difluoro-1-methylcyclohexyl)-5-methyl-4-oxo-3H,4H-pyrido[2,3-d]pyrimidin-2-yl]-2-(3,5-difluorophenyl)ethyl]-2-[(2S,4S)-9-cyclopropyl-7,8-diazatricyclo[4.3.0.0^2,^4]nona-1(6),8-dien-7-yl]acetamide] | 0.012 nM | > 20 nM
Cc1cc(C2(F)CCC(F)(F)CC2)nc2nc([C@H](Cc3cc(F)cc(F)c3)NC(=O)Cn3nc(C(F)F)c4c3C(F)(F)[C@@H]3C[C@H]43)n(-c3ccc(Cl)c4c(NS(C)(=O)=O)nn(CCN5CCOC(C)(C)C5)c34)c(=O)c12 (atropisomer, axis not shown; (P)) [Example 578, N-[(1S)-1-[(3P)-3-{4-chloro-1-[2-(2,2-dimethylmorpholin-4-yl)ethyl]-3-methanesulfonamido-1H-indazol-7-yl}-5-methyl-4-oxo-7-(1,4,4-trifluorocyclohexyl)-3H,4H-pyrido[2,3-d]pyrimidin-2-yl]-2-(3,5-difluorophenyl)ethyl]-2-[(2S,4R)-9-(difluoromethyl)-5,5-difluoro-7,8-diazatricyclo[4.3.0.0^2,^4]nona-1(6),8-dien-7-yl]acetamide] | 0.008 nM | > 20 nM
Cc1cc(C2CCC(F)(F)CC2)nc2nc([C@H](Cc3cc(F)cc(F)c3)NC(=O)Cn3nc(C(F)(F)F)c4c3C(F)(F)[C@@H]3C[C@H]43)n(-c3ccc(Cl)c4c(NS(C)(=O)=O)nn(CCCN5CCOCC5)c34)c(=O)c12 (atropisomer, axis not shown; (P)) [Example 121, N-[(1S)-1-[(3P)-3-{4-chloro-3-methanesulfonamido-1-[3-(morpholin-4-yl)propyl]-1H-indazol-7-yl}-7-(4,4-difluorocyclohexyl)-5-methyl-4-oxo-3H,4H-pyrido[2,3-d]pyrimidin-2-yl]-2-(3,5-difluorophenyl)ethyl]-2-[(2S,4R)-5,5-difluoro-9-(trifluoromethyl)-7,8-diazatricyclo[4.3.0.0^2,^4]nona-1(6),8-dien-7-yl]acetamide] | 0.027 nM | > 50 nM
Cc1cc(C2CCC(F)(F)CC2)nc2nc([C@H](Cc3cc(F)cc(F)c3)NC(=O)Cn3nc(C4CC4)c4c3C[C@@H]3C[C@H]43)n(-c3ccc(Cl)c4c(NS(C)(=O)=O)nn(CC(=O)N5C[C@@H](C)O[C@@H](C)C5)c34)c(=O)c12 (atropisomer, axis not shown; (P)) [Example 384, N-[(1S)-1-[(3P)-3-(4-chloro-1-{2-[(2R,6S)-2,6-dimethylmorpholin-4-yl]-2-oxoethyl}-3-methanesulfonamido-1H-indazol-7-yl)-7-(4,4-difluorocyclohexyl)-5-methyl-4-oxo-3H,4H-pyrido[2,3-d]pyrimidin-2-yl]-2-(3,5-difluorophenyl)ethyl]-2-[(2S,4S)-9-cyclopropyl-7,8-diazatricyclo[4.3.0.0^2,^4]nona-1(6),8-dien-7-yl]acetamide] | 0.025 nM | > 20 nM
CC1(C)CN(CCn2nc(NS(C)(=O)=O)c3c(Cl)ccc(-n4c([C@H](Cc5cc(F)cc(F)c5)NC(=O)Cn5nc(C(F)F)c6c5C(F)(F)[C@@H]5C[C@H]65)nc5nc(C6CCC(F)(F)CC6)cc(CF)c5c4=O)c32)CC(C)(C)O1 (atropisomer, axis not shown; (P)) [Example 513, N-[(1S)-1-[(3P)-3-{4-chloro-3-methanesulfonamido-1-[2-(2,2,6,6-tetramethylmorpholin-4-yl)ethyl]-1H-indazol-7-yl}-7-(4,4-difluorocyclohexyl)-5-(fluoromethyl)-4-oxo-3H,4H-pyrido[2,3-d]pyrimidin-2-yl]-2-(3,5-difluorophenyl)ethyl]-2-[(2S,4R)-9-(difluoromethyl)-5,5-difluoro-7,8-diazatricyclo[4.3.0.0^2,^4]nona-1(6),8-dien-7-yl]acetamide] | 0.017 nM | > 20 nM
Cc1cc(C2CCC(F)(F)CC2)nc2nc([C@H](Cc3cc(F)cc(F)c3)NC(=O)Cn3nc(C4CC4)c4c3C[C@@H]3C[C@H]43)n(-c3ccc(Cl)c4c(NS(C)(=O)=O)nn(CCN5CCCC(F)(F)C5)c34)c(=O)c12 (atropisomer, axis not shown; (P)) [Example 2, N-[(1S)-1-[(3P)-3-{4-chloro-1-[2-(3,3-difluoropiperidin-1-yl)ethyl]-3-methanesulfonamido-1H-indazol-7-yl}-7-(4,4-difluorocyclohexyl)-5-methyl-4-oxo-3H,4H-pyrido[2,3-d]pyrimidin-2-yl]-2-(3,5-difluorophenyl)ethyl]-2-[(2S,4S)-9-cyclopropyl-7,8-diazatricyclo[4.3.0.0^2,^4]nona-1(6),8-dien-7-yl]acetamide] | 0.008 nM | > 50 nM
CS(=O)(=O)Nc1nn(CCN2C[C@@H](F)[C@@H](F)C2)c2c(-n3c([C@H](Cc4cc(F)cc(F)c4)NC(=O)Cn4nc(C(F)F)c5c4C(F)(F)[C@@H]4C[C@H]54)nc4nc(C5CCC(F)(F)CC5)ccc4c3=O)ccc(Cl)c12 (atropisomer, axis not shown; (P)) [Example 26, N-[(1S)-1-[(3P)-3-(4-chloro-1-{2-[(3R,4S)-3,4-difluoropyrrolidin-1-yl]ethyl}-3-methanesulfonamido-1H-indazol-7-yl)-7-(4,4-difluorocyclohexyl)-4-oxo-3H,4H-pyrido[2,3-d]pyrimidin-2-yl]-2-(3,5-difluorophenyl)ethyl]-2-[(2S,4R)-9-(difluoromethyl)-5,5-difluoro-7,8-diazatricyclo[4.3.0.0^2,^4]nona-1(6),8-dien-7-yl]acetamide] | 0.011 nM | > 50 nM
COCCOCCn1nc(NS(C)(=O)=O)c2c(Cl)ccc(-n3c([C@H](Cc4cc(F)cc(F)c4)NC(=O)Cn4nc(C(F)F)c5c4C(F)(F)[C@@H]4C[C@H]54)nc4nc(C5CCC(F)(F)CC5)ccc4c3=O)c21 (atropisomer, axis not shown; (P)) [Example 241, N-[(1S)-1-[(3P)-3-{4-chloro-3-methanesulfonamido-1-[2-(2-methoxyethoxy)ethyl]-1H-indazol-7-yl}-7-(4,4-difluorocyclohexyl)-4-oxo-3H,4H-pyrido[2,3-d]pyrimidin-2-yl]-2-(3,5-difluorophenyl)ethyl]-2-[(2S,4R)-9-(difluoromethyl)-5,5-difluoro-7,8-diazatricyclo[4.3.0.0^2,^4]nona-1(6),8-dien-7-yl]acetamide] | 0.018 nM | > 50 nM
CO[C@@H](C)Cn1nc(NS(C)(=O)=O)c2c(Cl)ccc(-n3c([C@H](Cc4cc(F)cc(F)c4)NC(=O)Cn4nc(C(F)F)c5c4C(F)(F)[C@@H]4C[C@H]54)nc4nc(C5CCC(F)(F)CC5)cc(C)c4c3=O)c21 (atropisomer, axis not shown; (P)) [Example 78, N-[(1S)-1-[(3P)-3-{4-chloro-3-methanesulfonamido-1-[(2S)-2-methoxypropyl]-1H-indazol-7-yl}-7-(4,4-difluorocyclohexyl)-5-methyl-4-oxo-3H,4H-pyrido[2,3-d]pyrimidin-2-yl]-2-(3,5-difluorophenyl)ethyl]-2-[(2S,4R)-9-(difluoromethyl)-5,5-difluoro-7,8-diazatricyclo[4.3.0.0^2,^4]nona-1(6),8-dien-7-yl]acetamide] | 0.016 nM | > 50 nM
Cc1cc(C2CCC(F)(F)CC2)nc2nc([C@H](Cc3cc(F)cc(F)c3)NC(=O)Cn3nc(C4CC4)c4c3C[C@@H]3C[C@H]43)n(-c3ccc(Cl)c4c(NS(C)(=O)=O)nn(CCN5C[C@H](C)OC(C)(C)C5)c34)c(=O)c12 (atropisomer, axis not shown; (P)) [Example 458, N-[(1S)-1-[(3P)-3-(4-chloro-3-methanesulfonamido-1-{2-[(6S)-2,2,6-trimethylmorpholin-4-yl]ethyl}-1H-indazol-7-yl)-7-(4,4-difluorocyclohexyl)-5-methyl-4-oxo-3H,4H-pyrido[2,3-d]pyrimidin-2-yl]-2-(3,5-difluorophenyl)ethyl]-2-[(2S,4S)-9-cyclopropyl-7,8-diazatricyclo[4.3.0.0^2,^4]nona-1(6),8-dien-7-yl]acetamide] | 0.007 nM | > 20 nM
